# Results taken from patent US20230285374A1, “THERAPEUTIC METHODS USING VADADUSTAT” (Akebia Therapeutics, Inc., priority 2019, published 2023).
# Tested on: subjects with anemia and Non-Dialysis-Dependent Chronic Kidney Disease (NDD-CKD)
# Assay: Phase 3 open-label, active-controlled NDD-CKD Conversion/Correction Study (J01), Compound 1 vs darbepoetin alfa, 52 weeks
# Assay type: in vivo, human
# Description: This example describes the first open-label, active-controlled Phase 3 study of Compound 1 (Vadadustat or VDT or MT-6548) for treatment of anemia in subjects with Non-Dialysis-Dependent Chronic Kidney Disease (NDD-CKD) for up to 52 weeks. Efficacy and safety of Compound 1 was compared with darbepoetin alfa (DA) for the treatment of anemia in subjects with NDD-CKD. A subset of the subjects were switching to treatment with Compound 1 from an ESA therapy. […] These findings support the use of vadadustat as a durable, effective therapy for anemia in patients with NDD-CKD.
# The study population consisted of subjects 20 years of age with NDD-CKD, estimated glomerular filtration rate (eGFR)<60 mL/min/1.73 m^2, and hemoglobin (Hb) values greater than or equal to 8.0 g/dL and less than 11.0 g/dL (correction group) or greater than or equal to 9.0 g/dL and less than 12.5 g/dL (conversion group), who were currently treated with an erythropoiesis stimulating agent (ESA) for anemia.
# Following randomization, patients were treated for a period of up to 52 weeks. Patients were then observed post treatment for a period of two (2) weeks (“follow up” period).
# In order to be eligible for this study, patients were required to meet all of the following inclusion criteria: • Be at least 20 years of age, inclusive; • Have diagnosis of Chronic Kidney Disease with an estimated glomerular filtration rate (eGFR)<60 mL/minute/1.73 m^2 [eGFR (mL/min/1.73 m^2)=194×(serum creatinine)^−1.094×(age)^−0.287(females: ×0.739)] at screening; • Not have received dialysis within 8 weeks prior to the screening period nor expect to start dialysis during the treatment period; • ESA Treatment • Correction group: not receiving ESA for at least eight (8) weeks just before screening; • Conversion group: receiving the same formulation of ESA using the same administration route and the same dose interval (the dose interval should be the one described in the package insert for the ESA formulation) for at least 8 weeks just before screening using the dosages described below: Epoetin alfa and epoetin beta: ≥12,000 IU every 2 weeks Darbepoetin alfa: ≥120 μg every 2 weeks Epoetin beta pegol: ≥250 μg every 4 weeks • Baseline Hb: Correction group: ≥8.0 to <11.0 g/dL Conversion group: ≥9.0 to ≤12.0 g/dL • Have a difference of <1.5 g/dL in Hb for the latest two tests in the screening period; • Have serum ferritin values of ≥100 ng/mL or transferrin saturation of ≥20% during the screening period; and • Have folic acid and vitamin B12 values above standard minimum values during the screening period.
# Subjects deemed ineligible for into the study included those who: • Have anemia due to a cause other than CKD; • Have active bleeding or blood loss during the eight (8) weeks just before screening; • Have received a red blood cell transfusion during the eight (8) weeks just before screening; • Have uncontrolled hypertension; • Have active ocular fundus disease or cannot undergo an ocular fundus examination; • Have been diagnosed with cardiovascular disease, malignancy, or hemisiderosis; • Have a history of adverse drug reactions or a drug allergy; and • Have previously received Compound 1.
# • Average Hb level at weeks 20 and 24 of the treatment period.
# • Hb level at each treatment visit; and • The proportion of patients within the target Hb range (11.0-13.0 g/dL).
# Safety endpoints for this study were defined as follows: • Adverse events (AEs); • Adverse drug reactions; and
# Other endpoints for this study were defined as follows: • Iron-related parameters: serum ferritin, transferrin saturation (TSAT), total iron-binding capacity (TIBC), hepcidin, serum iron, and monthly dose of iron by any route of administration (oral and intravenous); and • Red blood cell indices. […]
# [1] = 52 weeks LOCF compared with baseline
smiles,measurement,setting,value
"O=C(O)CNC(=O)c1ncc(-c2cccc(Cl)c2)cc1O [Compound 1, Vadadustat]",Deaths due to AEs,52 weeks,0 (0.0) n (%)
same,"MCH, change",[1],significantly increased
same,"MCHC, change",[1],significantly increased
same,"MCV, change",[1],significantly increased
same,"RDW, change",[1],no significant differences
same,"TIBC, change",[1],significant increase
same,"TSAT, change",[1],no significant difference
same,"hepcidin, change",[1],significant decreases
same,"serum ferritin, change",[1],significant decreases
same,week at which mean Hb reached the target range (11.0-13.0 g/dL),ESA non-users,8 week
same,proportion of patients with Hb levels within the target range,"ESA non-users, Week 52",71.4%
same,proportion of patients with Hb levels within the target range,"ESA non-users, baseline",15.5%
same,week at which mean Hb reached the target range (11.0-13.0 g/dL),ESA users,8 week
same,proportion of patients with Hb levels within the target range,"ESA users, Hb<11.0 g/dl subgroup, Week 52",78.3%
same,proportion of patients with Hb levels within the target range,"ESA users, Hb<11.0 g/dl subgroup, baseline",4.7%
same,proportion of patients with Hb levels within the target range,"ESA users, Hb≥11.0 g/dl subgroup, Week 52",80.0%
same,proportion of patients with Hb levels within the target range,"ESA users, Hb≥11.0 g/dl subgroup, baseline",91.9%
same,proportion of patients with Hb levels within the target range,"ESA users, Week 52",79.2%
same,proportion of patients with Hb levels within the target range,"ESA users, baseline",45.0%
same,Hb levels during the treatment period,"ESA users, screening Hb ≥11.0 g/dl subgroup",maintained within the target range throughout the treatment period
same,time at which mean Hb reached the target range,"ESA users, screening Hb<11.0 g/dl subgroup",12 weeks
same,proportion of patients within the target Hb range,"conversion group, week 24",66.7%
same,average Hb at baseline,conversion patients,10.68 g/dL
same,average Hb at week 24,conversion patients,11.27 g/dL
same,average Hb at baseline,correction patients,10.17 g/dL
same,average Hb at week 24,correction patients,11.85 g/dL
same,proportion of patients within the target Hb range of 11.0-13.0 g/dL,"correction patients, week 24",69.7%
same,Adverse drug reaction,"human, in vivo, 52 weeks",20 (13.2) n (%)
same,Cardiac failure (AE of special interest),"human, in vivo, 52 weeks",6 (4.0) n (%)
same,Cardiovascular event (AE of special interest),"human, in vivo, 52 weeks",3 (2.0) n (%)
same,Constipation,"human, in vivo, 52 weeks",14 (9.3) n (%)
same,Diarrhea,"human, in vivo, 52 weeks",18 (11.9) n (%)
same,Discontinuation due to AEs,"human, in vivo, 52 weeks",10 (6.6) n (%)
same,Dose reduction or interruption of study drug due to AEs,"human, in vivo, 52 weeks",11 (7.3) n (%)
same,Hyperkalemia (AE of special interest),"human, in vivo, 52 weeks",1 (0.7) n (%)
same,Malignancy (AE of special interest),"human, in vivo, 52 weeks",2 (1.3) n (%)
same,Nasopharyngitis,"human, in vivo, 52 weeks",37 (24.5) n (%)
same,Pulmonary hypertension (AE of special interest),"human, in vivo, 52 weeks",0 (0.0) n (%)
same,Retinal disorder (AE of special interest),"human, in vivo, 52 weeks",4 (2.6) n (%)
same,Serious AEs,"human, in vivo, 52 weeks",42 (27.8) n (%)
same,Serious adverse drug reaction,"human, in vivo, 52 weeks",0 (0.0) n (%)
same,Subjects with ≥ 1 AE,"human, in vivo, 52 weeks",136 (90.1) n (%)
same,constipation,"human, in vivo, 52 weeks",9.3%
same,diarrhea,"human, in vivo, 52 weeks",11.9%
same,"incidence of adverse events (AEs), at least one AE","human, in vivo, 52 weeks",90.1%
same,incidence of serious adverse events (SAEs),"human, in vivo, 52 weeks",27.8%
same,nasopharyngitis,"human, in vivo, 52 weeks",24.5%
same,mean Hb level at week 52,overall population,11.51 g/dL
same,week at which mean Hb reached the target range (11.0-13.0 g/dL),overall population,8 week
same,LSMean of the average Hb at weeks 20 and 24,"overall population, MMRM",11.66 g/dL
same,Difference (Compound 1-Darbepoetin alfa) in LSMean of the average Hb at weeks 20 and 24,"overall population, noninferiority margin −0.75 g/dL",-0.26 g/dL
